Assay results reported in ChEMBL document CHEMBL1153084, “Synthesis and HMG-CoA reductase inhibition of 2-cyclopropyl-4-thiophenyl-quinoline mevalonolactones” (Bioorg Med Chem, 2009).

What follows are compounds tested against T1, 3-hydroxy-3-methylglutaryl-coenzyme A reductase (Homo sapiens, UniProt P04035) (assay: Inhibition of HMG CoA reductase by spectrophotometry).
T1 sequence (P04035 whole entry): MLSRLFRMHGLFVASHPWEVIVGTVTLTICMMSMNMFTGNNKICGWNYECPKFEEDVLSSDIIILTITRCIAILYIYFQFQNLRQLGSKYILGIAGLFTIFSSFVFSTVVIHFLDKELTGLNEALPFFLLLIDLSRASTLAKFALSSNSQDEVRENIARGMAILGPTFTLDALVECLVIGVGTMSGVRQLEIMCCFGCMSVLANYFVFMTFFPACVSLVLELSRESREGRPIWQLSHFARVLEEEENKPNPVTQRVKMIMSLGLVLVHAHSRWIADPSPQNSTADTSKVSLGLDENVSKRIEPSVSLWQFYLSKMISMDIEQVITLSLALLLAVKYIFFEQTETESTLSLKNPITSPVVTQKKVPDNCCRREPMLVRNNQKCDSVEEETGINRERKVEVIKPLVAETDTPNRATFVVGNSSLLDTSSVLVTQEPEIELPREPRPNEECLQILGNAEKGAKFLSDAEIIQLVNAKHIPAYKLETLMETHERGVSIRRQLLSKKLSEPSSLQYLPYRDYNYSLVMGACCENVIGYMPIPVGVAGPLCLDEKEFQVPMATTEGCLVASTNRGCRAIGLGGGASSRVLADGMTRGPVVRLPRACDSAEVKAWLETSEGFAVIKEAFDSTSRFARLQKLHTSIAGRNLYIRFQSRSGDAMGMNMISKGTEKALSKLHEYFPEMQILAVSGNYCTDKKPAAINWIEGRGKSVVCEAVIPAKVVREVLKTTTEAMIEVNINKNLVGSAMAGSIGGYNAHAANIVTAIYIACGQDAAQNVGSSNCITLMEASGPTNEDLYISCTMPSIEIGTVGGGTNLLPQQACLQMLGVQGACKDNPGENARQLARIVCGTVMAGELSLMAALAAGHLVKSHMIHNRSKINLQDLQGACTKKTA

| IC50 [µM] | SMILES |
| --- | --- |
| 6.93 | O=C1C[C@H](O)C[C@@H](/C=C/c2c(C3CC3)nc3ccc(F)cc3c2Sc2ccc(F)cc2)O1 |
| 11.3 | CC(C)c1ccc(Sc2c(/C=C/[C@@H]3C[C@@H](O)CC(=O)O3)c(C3CC3)nc3ccccc23)cc1 |
| 7.1 | COc1cccc(Sc2cc3nc(C4CC4)c(/C=C/[C@@H]4C[C@@H](O)CC(=O)O4)c(Sc4cccc(OC)c4)c3cc2F)c1 |
| 45.7 | O=C1C[C@H](O)C[C@@H](/C=C/c2c(C3CC3)nc3cc(Sc4ccc(F)cc4)c(F)cc3c2Sc2ccc(F)cc2)O1 |
| 41.3 | COc1ccc2nc(C3CC3)c(/C=C/[C@@H]3C[C@@H](O)CC(=O)O3)c(Sc3ccc(C(C)C)cc3)c2c1 |
| 360 | COc1cccc(Sc2c(/C=C/[C@@H]3C[C@@H](O)CC(=O)O3)c(C3CC3)nc3cc(F)c(F)cc23)c1 |
| 62.4 | O=C1C[C@H](O)C[C@@H](/C=C/c2c(C3CC3)nc3ccccc3c2Sc2ccc(F)cc2)O1 |
| 759 | CC(C)c1ccc(Sc2c(/C=C/[C@@H]3C[C@@H](O)CC(=O)O3)c(C3CC3)nc3cc(F)c(F)cc23)cc1 |
| 5.61 | COc1cccc(Sc2c(/C=C/[C@@H]3C[C@@H](O)CC(=O)O3)c(C3CC3)nc3ccc(F)cc23)c1 |
| 25.7 | COc1ccc2nc(C3CC3)c(/C=C/[C@@H]3C[C@@H](O)CC(=O)O3)c(Sc3ccc(F)cc3)c2c1 |
| 8.9 | O=C(O)C[C@H](O)C[C@H](O)/C=C/c1c(C2CC2)nc2ccccc2c1-c1ccc(F)cc1 [PITAVASTATIN CALCIUM] |
